In patent publication EP4763839A1 (Pamplona Therapeutics (Shenzhen) Co., Ltd., priority 2023, dated 2025):
Where a name gives a salt, the structure may show the parent alone.

Biological target: T1, IRAK4 (Homo sapiens, UniProt Q9NWZ3)
T1 sequence (Q9NWZ3 1-460): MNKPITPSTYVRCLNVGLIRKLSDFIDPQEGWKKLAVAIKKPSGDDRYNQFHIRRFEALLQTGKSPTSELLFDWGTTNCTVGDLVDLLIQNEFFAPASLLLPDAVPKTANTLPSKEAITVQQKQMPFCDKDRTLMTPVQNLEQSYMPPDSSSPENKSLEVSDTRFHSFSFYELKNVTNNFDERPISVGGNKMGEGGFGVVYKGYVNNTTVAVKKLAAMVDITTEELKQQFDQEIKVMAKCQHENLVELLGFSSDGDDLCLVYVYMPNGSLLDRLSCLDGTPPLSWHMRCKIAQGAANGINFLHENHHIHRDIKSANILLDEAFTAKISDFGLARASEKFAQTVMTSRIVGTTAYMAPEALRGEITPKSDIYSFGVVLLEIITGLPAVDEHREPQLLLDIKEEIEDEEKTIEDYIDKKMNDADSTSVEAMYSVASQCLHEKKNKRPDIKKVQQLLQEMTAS
Test: Degradation of IRAK4 in THP1 cells, Western blot
Assay type: cell-based
Set-up: Degradation of IRAK4 in THP1 by compound; host or cells: THP-1
Settings: THP-1 cells, 24 hours of incubation; for DC50: IRAK4 protein by Western blot, read-out: DC50; for Dmax: maximum degradation rate, read-out: Dmax
Description: After 24 hours of incubation, the cells were collected into 1.5 mL centrifuge tubes and centrifuged at 1,000 rpm for 5 minutes. […] The supernatants were collected, and the IRAK4 protein levels were respectively detected by Western blot (WB). The total protein concentration in the cell lysate supernatant was determined using a BCA protein quantification kit (NCM). Based on the total protein concentration detected by BCA, the samples were adjusted to 2 μg/μL using cell lysis buffer and 5×SDS-PAGE protein loading buffer (Beyotime), heated at 95°C for 5 minutes in a metal bath, and then placed on ice for an ice bath for 5 minutes before being used as the loading samples for Western blot analysis. Protein electrophoresis was performed using a 10% SDS-PAGE gel with a loading volume of 20 μL (total protein 40 μg) and Tris-SDS electrophoresis at a constant voltage of 80 V. After electrophoresis, the proteins on the gel were transferred to a 0.2 μm PVDF membrane (Immobilon) using a semi-dry transfer method at 0.5 A and 20 V for 60 minutes. After transfer, the membrane was placed in 5% skimmed milk and incubated at rt for 2 hours. After blocking, the PVDF membrane was incubated with primary antibody against IRAK4 (Abcam) at 4°C overnight. […] The color development and protein band imaging were performed using a chemiluminescence imaging system ([…] Technology Co., Ltd.). The protein bands were analyzed for grayscale values using Image J analysis software. The corrected grayscale values for each sample were calculated and then compared with those of the control group treated with DMSO alone to calculate the degradation rate.

| Structure (SMILES) | DC50 | Dmax |
| --- | --- | --- |
| Cn1c(=O)n(C2CCC(=O)NC2=O)c2cccc(N3CCC(CN4CCN(c5ccc(-n6cc(NC(=O)c7cccc(-c8ccn[nH]8)n7)c(S(N)(=O)=O)n6)cc5)CC4)CC3)c21 (centres unmarked) [Compound A327, N-(1-(4-(4-((1-(1-(2,6-dioxopiperidin-3-yl)-3-methyl-2-oxo-2,3-dihydro-1H-benzo[d]imidazol-4-yl)piperidin-4-yl)methyl)piperazin-1-yl)phenyl)-3-sulfamoyl-1H-pyrazol-4-yl)-6-(1H-pyrazol-5-yl)picolinamide] | < 100 nM | > 60% |
| COc1ccc(C(=O)N2CCC(CCN3CCN(c4ccc(-n5cc(NC(=O)c6cccc(-c7ccn[nH]7)n6)c(S(N)(=O)=O)n5)cc4)CC3)C2)cc1N1CCC(=O)NC1=O (centres unmarked) [Compound A328, N-(1-(4-(4-(1-(3-(2,4-dioxotetrahydropyrimidin-1(2H)-yl)-4-methoxybenzoyl)pyrrolidin-3-ethyl)piperazin-1-yl)phenyl)-3-sulfonylamino-1H-pyrazol-4-yl)-6-(1H-pyrazol-5-yl)picolinamide trifluoroacetate] | < 100 nM | > 60% |
| COc1ccc(C(=O)N2CCC(CN3CCN(c4ccc(-n5cc(NC(=O)c6cccc(-c7ccn[nH]7)n6)c(S(N)(=O)=O)n5)cc4)CC3)C2)cc1N1CCC(=O)NC1=O (centres unmarked) [Compound A329, N-(1-(4-(4-((1-(3-(2,4-dioxotetrahydropyrimidin-1(2H)-yl)-4-methoxybenzoyl)pyrrolidin-3-yl)methyl)piperazin-1-yl)phenyl)-3-sulfamoyl-1H-pyrazol-4-yl)-6-(1H-pyrazol-5-yl)picolinamide trifluoroacetate] | < 100 nM | > 60% |
| Cn1c(=O)n(C2CCC(=O)NC2=O)c2cccc(NCC3CCC4(CC3)CCN(C(=O)c3ccc(-n5cc(NC(=O)c6cccc(-c7ccn[nH]7)n6)c(S(N)(=O)=O)n5)cc3)CC4)c21 (centres unmarked) [Compound A330] | < 100 nM | > 60% |
| Cn1c(=O)n(C2CCC(=O)NC2=O)c2cccc(N3CCC(C(=O)N4CCN(Cc5ccc(-n6cc(NC(=O)c7cccc(-c8ccn[nH]8)n7)c(S(N)(=O)=O)n6)cc5)CC4)CC3)c21 (centres unmarked) [Compound A331, N-(1-(4-((4-(1-(1-(2,6-dioxopiperidin-3-yl)-3-methyl-2-oxo-2,3-dihydro-1H-benzo[d]imidazol-4-yl)piperidine-4-carbonyl)piperazin-1-yl)methyl)phenyl)-3-sulfamoyl-1H-pyrazol-4-yl)-6-(1H-pyrazol-5-yl)picolinamide] | < 100 nM | > 60% |
| Cn1c(=O)n(C2CCC(=O)NC2=O)c2cccc(N3CCN(C(=O)C4CCN(Cc5ccc(-n6cc(NC(=O)c7cccc(-c8ccn[nH]8)n7)c(S(N)(=O)=O)n6)cc5)CC4)CC3)c21 (centres unmarked) [Compound A332, N-(1-(4-((4-(4-(1-(2,6-Dioxopiperidin-3-yl)-3-methyl-2-oxo-2,3-dihydro-1H-benzo[d]imidazol-4-yl)piperazine-1-carbonyl)piperidin-1-yl)methyl)phenyl)-3-sulfamoyl-1H-pyrazol-4-yl)-6-(1H-pyrazol-5-yl)picolinamide] | < 100 nM | > 60% |
| Cn1c(=O)n(C2CCC(=O)NC2=O)c2cccc(NCCN3CCC4(CCN(C(=O)c5ccc(-n6cc(NC(=O)c7cccc(-c8ccn[nH]8)n7)c(S(N)(=O)=O)n6)cc5)C4)C3)c21 (centres unmarked) [Compound A333] | < 100 nM | > 60% |
| Cn1c(=O)n(C2CCC(=O)NC2=O)c2cccc(NCCN3CC4(C3)CN(Cc3ccc(-n5cc(NC(=O)c6cccc(-c7ccn[nH]7)n6)c(S(N)(=O)=O)n5)cc3)C4)c21 (centres unmarked) [Compound A334] | < 100 nM | > 60% |
| Cn1c(=O)n(C2CCC(=O)NC2=O)c2cccc(C#CCOC3CCN(C(=O)c4ccc(-n5cc(NC(=O)c6cccc(-c7ccn[nH]7)n6)c(S(N)(=O)=O)n5)cc4)CC3)c21 (centres unmarked) [Compound A335, N-(1-(4-(4-((3-(1-(2,6-Dioxopiperidin-3-yl)-3-methyl-2-oxo-2,3-dihydro-1H-benzo[d]imidazol-4-yl)prop-2-yn-1-yl)oxy)piperidine-1-carbonyl)phenyl)-3-sulfamoyl-1H-pyrazol-4-yl)-6-(1H-pyrazol-5-yl)picolinamide] | < 100 nM | > 60% |
| Cn1c(=O)n(C2CCC(=O)NC2=O)c2cccc(C#CCCN3CCN(C(=O)c4ccc(-n5cc(NC(=O)c6cccc(-c7ccn[nH]7)n6)c(S(N)(=O)=O)n5)cc4)CC3)c21 (centres unmarked) [Compound A336] | < 100 nM | > 60% |
| CN(CCN1CC2CN(c3cccc4c3n(C)c(=O)n4C3CCC(=O)NC3=O)CC2C1)Cc1ccc(-n2cc(NC(=O)c3cccc(-c4ccn[nH]4)n3)c(S(N)(=O)=O)n2)cc1 (centres unmarked) [Compound A337, N-(1-(4-(((2-(5-(1-(2,6-Dioxopiperidin-3-yl)-3-methyl-2-oxo-2,3-dihydro-1H-benzo[d]imidazol-4-yl)hexahydropyrrolo[3,4-c]pyrrol-2(1H)-yl)ethyl)(methyl)amino)methyl)phenyl)-3-sulfamoyl-1H-pyrazol-4-yl)-6-(1H-pyrazol-5-yl)picolinamide] | < 100 nM | > 60% |
| Cn1c(=O)n(C2CCC(=O)NC2=O)c2cccc(NCCN3CC4CN(Cc5ccc(-n6cc(NC(=O)c7cccc(-c8ccn[nH]8)n7)c(S(N)(=O)=O)n6)cc5)CC4C3)c21 (centres unmarked) [Compound A338] | < 100 nM | > 60% |
| Cn1c(=O)n(C2CCC(=O)NC2=O)c2cccc(NCCN3CC4CN(C(=O)c5ccc(-n6cc(NC(=O)c7cccc(-c8ccn[nH]8)n7)c(S(N)(=O)=O)n6)cc5)CC4C3)c21 (centres unmarked) [Compound A339] | < 100 nM | > 60% |
| Cn1c(=O)n(C2CCC(=O)NC2=O)c2cccc(C#CCOC3CCN(Cc4ccc(-n5cc(NC(=O)c6cccc(-c7ccn[nH]7)n6)c(S(N)(=O)=O)n5)cc4)CC3)c21 (centres unmarked) [Compound A340, N-(1-(4-((4-((3-(1-(2,6-Dioxopiperidin-3-yl)-3-methyl-2-oxo-2,3-dihydro-1H-benzo[d]imidazol-4-yl)prop-2-yn-1-yl)oxy)piperidin-1-yl)methyl)phenyl)-3-sulfamoyl-1H-pyrazol-4-yl)-6-(1H-pyrazol-5-yl)picolinamide] | < 100 nM | > 60% |
| Cn1c(=O)n(C2CCC(=O)NC2=O)c2cccc(N3CCC4(CCN(CCNC(=O)c5ccc(-n6cc(NC(=O)c7cccc(-c8ccn[nH]8)n7)c(S(N)(=O)=O)n6)cc5)C4)C3)c21 (centres unmarked) [Compound A341, N-(1-(4-((2-(7-(1-(2,6-Dioxopiperidin-3-yl)-3-methyl-2-oxo-2,3-dihydro-1H-benzo[d]imidazol-4-yl)-2,7-diazaspiro[4.4]nonan-2-yl)ethyl)carbamoyl)phenyl)-3-sulfamoyl-1H-pyrazol-4-yl)-6-(1H-pyrazol-5-yl)picolinamide formate] | < 100 nM | > 60% |
| Cn1c(=O)n(C2CCC(=O)NC2=O)c2cccc(NCCN3CC4(C3)CN(C(=O)c3ccc(-n5cc(NC(=O)c6cccc(-c7ccn[nH]7)n6)c(S(N)(=O)=O)n5)cc3)C4)c21 (centres unmarked) [Compound A343] | < 100 nM | > 60% |
| Cn1c(=O)n(C2CCC(=O)NC2=O)c2cccc(C#CCOC3CN(C(=O)c4ccc(-n5cc(NC(=O)c6cccc(-c7ccn[nH]7)n6)c(S(N)(=O)=O)n5)cc4)C3)c21 (centres unmarked) [Compound A348] | < 100 nM | > 60% |
| N#Cc1ccnc(C(=O)Nc2cn(-c3ccc(N4CCN(CC5CCN(c6ccc(NC7CCC(=O)NC7=O)cc6F)CC5)CC4)cc3)nc2C(N)=O)c1 (centres unmarked) [Compound A349, N-(3-Carbamoyl-1-(4-(4-((1-(4-((2,6-dioxopiperidin-3-yl)amino)-2-fluorophenyl)piperidin-4-yl)methyl)piperazin-1-yl)phenyl)-1H-pyrazol-4-yl)-4-cyanopicolinamide] | > 1000 nM | < 40% |
| Cn1c(=O)n(C2CCC(=O)NC2=O)c2cccc(N3CCC(CCN4CCN(c5ccc(-n6cc(NC(=O)c7cccc(-c8ccn[nH]8)n7)c(S(N)(=O)=O)n6)cc5)CC4)CC3)c21 (centres unmarked) [Compound A350, N-(1-(4-(4-(2-(1-(1-(2,6-Dioxopiperidin-3-yl)-3-methyl-2-oxo-2,3-dihydro-1H-benzo[d]imidazol-4-yl)piperidin-4-yl)ethyl)piperazin-1-yl)phenyl)-3-sulfamoyl-1H-pyrazol-4-yl)-6-(1H-pyrazol-5-yl)picolinamide] | < 100 nM | > 60% |
